From patent publication US9732046B2, “Substituted 1,2,4-triazines as tubulin inhibitors” (YM Biosciences Australia Pty Ltd., priority 2003, dated 2017)

Key:
Assay type in all cases: cell-based
[1] = test system: DU145 (Prostate Cancer); experiment: Cellular growth inhibition assay (MTT), DU145; conditions: Homo sapiens, DU-145, Table 1, 40 hr incubation
Protocol: (§1) For screening purposes, compounds were diluted in 96 well plates at a concentration of 20 μM. Plates were warmed at 37° C. for 30 minutes before assay.
(§2) K562 (Chronic Myeloid Leukemia), PC3 (Prostate Cancer), and DU145 (Prostate Cancer) were obtained from the American Type Culture Collection (ATCC). K562 was grown in RPMI, with 10% FBS with Glutamx added. DU145 cells were cultured in DMED, with 10% FBS and Glutamx and MEM non-essential amino acids added. PC3 cells were grown in F12K medium, with 10% FBS and Glutamx and MEM non-essential amino acids added. All cells were grown at 37° C. in 5% CO2.
(§3) Cell suspensions were prepared by harvesting cells from culture. (Cells used in this test should be in later log phase growth and high viability.) Cells were diluted in correct growth medium to 1.1× final concentration (from 50000 cell/mL to 200,000 cell/mL, depending on cell line).
(§4) Compounds to be tested were added (10 μL, 10× final concentration) to a flat bottom 96-well plate. The cellular suspension (90 μL per well) was added, and the plate incubated for 40 hr at 37° C., 5% CO2. MTT (20 μL per well, 5 mg/mL in PBS) was added and the plates were returned to the incubator for a further 6 hours. Lysis buffer (100 μL per well, 10% SDS, 0.01N HCl) was added and the plate stored in the incubator overnight. The plate was then read at 590 nm.

[2] = test system: PC3 (Prostate Cancer); experiment: Cellular growth inhibition assay (MTT), PC3; conditions: Table 1, 40 hr incubation
Protocol: as §1, §2, §3, §4

[3] = test system: K562 (Chronic Myeloid Leukemia); experiment: Cellular growth inhibition assay (MTT), K562; conditions: Homo sapiens, Table 1, 40 hr incubation
Protocol: as §1, §2, §3, §4

[4] = molecular target: T1, TelJak2 (BaF3 TELJAK cells, TEL/Jak2 fusion) (Homo sapiens, UniProt O60674); experiment: Cellular growth inhibition assay (MTT), BaF3 TEL:JAK2 cell line; conditions: Table 1, 40 hr incubation
T1 construct: The regions encompassing the kinase domain of JAK2 (nucleotides 2994-3914); expressed in transfected cells; host or cells: BaF3 cells bearing the pTET-off plasmid, transfected with pTELJAK2 (pTRE2 vector); the other entry of the earlier key: ETV6 (P41212, Transcription factor ETV6)
Protocol: as §1
(§5) The coding region encompassing nucleotides 1-487 of TEL was amplified by PCR using the oligonucleotides 5TEL (5′-GGAGGATCCTGATCTCTCTCGCTGTGAGAC-3′) (SEQ ID NO: 1) and 3TEL (5′-AGGC GTCGACTTCTTCTTGATGGTTCTG-3′) (SEQ ID NO: 2) and U937 mRNA as template. A BamH I site was incorporated into the 5TEL primer, and a Sal I site was incorporated into the 3TEL primer. The regions encompassing the kinase domain of JAK2 (nucleotides 2994-3914; JAK2F 5′-ACGC GTCGACGGTGCCTTTGAAGACCGGGAT-3 (SEQ ID NO: 3); JAK2R 5′-ATAGTTTAGCGGCCGCTCAGAATGAAGGTCATTT-3′) (SEQ ID NO: 4) and JAK3 (nucleotides 2520-3469; JAK3F 5′-GAAGTCGACTATGCCTGCCAAGACCCCACGATCTT-3′ (SEQ ID NO: 5); JAK3R 5′-GGATCTAGACTATGAAAAGGACAGGGAGTGGTGTTT-3′ (SEQ ID NO: 6)) were generated by PCR using Taq DNA polymerase (Gibco/BRL) and U937 mRNA as template. A Sal I site was incorporated into the forward primer of JAK2 and JAK3, a Not I site was incorporated into the JAK2 reverse primer and a Xba I site was added to the reverse primer of JAK3.
(§6) A TEL/Jak2 fusion was generated by digestion of the TELPCR product with BamH I/Sa1 I, digestion of the JAK2 PCR product with Sa1 I/Not I followed by ligation and subcloning into the mammalian expression Vector pTRE 2 (Clontech) digested with BamH I-Not I (pTELJAK2). For JAK3 Sa1 I/Not I cleaved kinase domain PCR product was ligated with BamH I/Sa1 I cleaved TELproduct followed by ligation into BamH I/Not I cleaved pTRE2 (pTELJAK3).
(§7) The growth factor dependent myelomonocytic cell line BaF3 bearing the pTET-off plasmid (Clontech) was transfected with either pTELJAK2 or pTELJAK3 and the cells selected for factor independent growth. BaF 3 wild type cells were cultured in DMEM 10% FCS, 10% WEHI 3B conditioned medium. BaF3 TELJAK cells were cultured in DMEM 10% Tet-System Approved FBS (without WEHI 3B conditioned medium).
as §3, §4

[5] = molecular target: T2, TelJak3 (BaF3 TELJAK cells, TEL/JAK3 fusion) (Homo sapiens, UniProt P52333); experiment: Cellular growth inhibition assay (MTT), BaF3 TEL:JAK3 cell line; conditions: Table 1, 40 hr incubation
T2 construct: For JAK3 Sa1 I/Not I cleaved kinase domain PCR product was ligated with BamH I/Sa1 I cleaved TELproduct; expressed in transfected cells; host or cells: BaF3 cells bearing the pTET-off plasmid, transfected with pTELJAK3 (pTRE2 vector); the other entry of the earlier key: ETV6 (P41212, Transcription factor ETV6)
Protocol: as §1, §5, §6, §7, §3, §4

T1 sequence (O60674 with tags, fused parts or gaps): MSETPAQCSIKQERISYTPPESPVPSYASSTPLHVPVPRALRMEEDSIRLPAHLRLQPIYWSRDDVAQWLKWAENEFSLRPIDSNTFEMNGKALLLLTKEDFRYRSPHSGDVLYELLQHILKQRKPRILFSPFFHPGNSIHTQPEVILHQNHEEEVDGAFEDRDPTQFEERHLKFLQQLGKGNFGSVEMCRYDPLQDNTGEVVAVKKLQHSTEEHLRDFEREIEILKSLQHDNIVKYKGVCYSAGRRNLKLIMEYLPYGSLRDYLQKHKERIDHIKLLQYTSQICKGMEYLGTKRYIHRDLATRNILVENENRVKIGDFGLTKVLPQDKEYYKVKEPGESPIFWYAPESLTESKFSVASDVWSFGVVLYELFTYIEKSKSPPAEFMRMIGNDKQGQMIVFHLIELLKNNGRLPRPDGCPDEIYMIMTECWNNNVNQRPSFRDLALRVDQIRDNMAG
T2 sequence (P52333 with tags, fused parts or gaps): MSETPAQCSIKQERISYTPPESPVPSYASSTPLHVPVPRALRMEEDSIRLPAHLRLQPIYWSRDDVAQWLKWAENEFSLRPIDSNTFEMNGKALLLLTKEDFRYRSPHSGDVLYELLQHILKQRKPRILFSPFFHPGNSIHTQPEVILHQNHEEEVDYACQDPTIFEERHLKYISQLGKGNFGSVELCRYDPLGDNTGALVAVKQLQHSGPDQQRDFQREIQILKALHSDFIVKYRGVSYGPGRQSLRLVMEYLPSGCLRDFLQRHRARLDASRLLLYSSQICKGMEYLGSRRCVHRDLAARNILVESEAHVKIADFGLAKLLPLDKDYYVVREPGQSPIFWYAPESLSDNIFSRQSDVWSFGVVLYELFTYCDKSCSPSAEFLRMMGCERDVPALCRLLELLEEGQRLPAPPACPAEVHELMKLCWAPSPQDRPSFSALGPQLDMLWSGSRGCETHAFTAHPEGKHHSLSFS

| SMILES | inhibition at 20 µM [1] | inhibition at 20 µM [2] | inhibition at 20 µM [3] | inhibition at 20 µM [4] | inhibition at 20 µM [5] |
| --- | --- | --- | --- | --- | --- |
| CCCC(Nc1cncc(-c2ccc(OCCCCN3CCOCC3)c(OC)c2)n1)c1ccccc1 (stereo not shown) | < 50% | < 50% | > 50% | > 50% | > 50% |
| CCCC(Nc1cncc(-c2ccc(CN3CCN(C)CC3)cc2)n1)c1ccccc1 (stereo not shown) | < 50% | < 50% | < 50% | > 50% | > 50% |
| CCCC(Nc1cncc(-c2cc(OC)c(OC)c(OC)c2)c1)c1ccccc1 (stereo not shown) | < 50% | > 50% | > 50% | > 50% | > 50% |
| CCCC(Nc1cncc(-c2ccc(CN3CCOCC3)cc2)n1)c1ccccc1 (stereo not shown) | < 50% | < 50% | < 50% | > 50% | < 50% |
| CCCC(Nc1cncc(-c2ccc(C(=O)N3CCN(C)CC3)cc2)n1)c1ccccc1 (stereo not shown) | – | < 50% | < 50% | > 50% | > 50% |
| CCCC(Nc1cncc(-c2ccc(CN(C)C)cc2)n1)c1ccccc1 (stereo not shown) | < 50% | < 50% | > 50% | > 50% | > 50% |
| CCNC(=O)Nc1ccc(-c2cncc(NC(C)c3cccnc3)n2)cc1OC (stereo not shown) | – | < 50% | – | > 50% | > 50% |
| CCCC(Nc1cncc(-c2ccc(C(=O)NCCCN3CCOCC3)cc2)n1)c1ccccc1 (stereo not shown) | < 50% | < 50% | < 50% | > 50% | > 50% |
| CCCC(Nc1cncc(-c2ccc(C(=O)NCCCCCN)c(C)c2)n1)c1cccnc1 (stereo not shown) | < 50% | < 50% | > 50% | > 50% | > 50% |
| CCCC(Nc1cncc(-c2ccc(NC(=O)c3cccnc3)c(OC)c2)n1)c1cccnc1 (stereo not shown) | < 50% | < 50% | > 50% | > 50% | > 50% |
| COc1cc(-c2nc(N[C@H](C)c3ccccc3)nnc2C)ccc1O | < 50% | < 50% | > 50% | > 50% | > 50% |
| CCCC(Nc1cncc(-c2ccc(CN3CCC(O)CC3)cc2)n1)c1ccccc1 (stereo not shown) | < 50% | < 50% | > 50% | > 50% | > 50% |
| CCCC(Nc1cncc(-c2ccc(OCCCN3CCCC3)c(OC)c2)n1)c1cccnc1 (stereo not shown) | < 50% | < 50% | > 50% | > 50% | > 50% |
| CCCC(Nc1cncc(-c2ccc(CN3CCC[C@H]3CO)cc2)n1)c1ccccc1 (stereo partly shown) | < 50% | < 50% | > 50% | > 50% | > 50% |
